# Tests used:
# SRP/FtsY = biological target: T1, SRP/FtsY (Escherichia coli, UniProt P0AGD7+P10121); test: YohP insertion into SecYEG-proteoliposomes with purified SRP/FtsY, proteinase K resistance; type: biochemical, E. coli; details: added together with SRP/FtsY (20 ng µL−1 each), 10 µM GTP
# T1 construct: (Ec)Ffh (full-length) was concentrated on a 10 kDa centrifugal filter; (Ec)FtsY (full-length) was re-buffered in HT buffer; His-tag; made in house; host or cells: E. coli
# Protocol: (§1) For protein transport assay, YohP cloned in pET19b was synthesized in vitro using a purified transcription/translation system composed of cytosolic translation factors (CTF) and high salt-washed ribosomes[35],[36]. The ^35S-Methionine/^35S-Cysteine labeling mix was obtained from Perkin Elmer (Wiesbaden, Germany). INVs of E. coli cells were prepared by sucrose gradient centrifugation of cell extracts as described[76] and resuspended in INV buffer (50 mM triethanolamine acetate, pH 7.5, 200 mM sucrose, 1 mM DTT). […] The supernatant containing YohP was then incubated with INV, liposomes or SecYEG-proteoliposomes for 10 min at 37 °C in the presence of 10 µM GTP. […] Next, the samples were denatured at 56 °C for 10 min in 35 μL of TCA loading dye (prepared by mixing one part of solution III (1 M dithiothreitol) with 4 parts of solution II (6.33% (w/v) SDS, 0.083 M Tris, 30% (v/v) glycerol and 0.053% (w/v) bromophenol blue) and 5 parts of solution I (0.2 M Tris, 0.02 M EDTA pH 8)) and analyzed after separation on a modified SDS-PAGE[35] by phosphor imaging. For quantification of YohP insertion, autoradiography samples were analyzed by using the ImageQuant (GE Healthcare) software. […] Mean values and SEM values were determined by using either Excel (Microsoft Corp.) or GraphPad Prism (GraphPad Prism Corp. San Diego). […]
# (Bs)Ffh-NG = biological target: T2, (Bs)Ffh-NG (Bacillus subtilis, UniProt P37105); test: Microscale thermophoresis (MST) ligand binding; design: species or system B. subtilis; details: NG domain labeled with NT 647, 21 °C
# T2 construct: purified NG domains of (Ec)Ffh, (Ec)FtsY and (Bs)Ffh; His6 (N); made in house; host or cells: E. coli Rosetta pLysS
# T2 sequence (P37105 1-297 limits assumed): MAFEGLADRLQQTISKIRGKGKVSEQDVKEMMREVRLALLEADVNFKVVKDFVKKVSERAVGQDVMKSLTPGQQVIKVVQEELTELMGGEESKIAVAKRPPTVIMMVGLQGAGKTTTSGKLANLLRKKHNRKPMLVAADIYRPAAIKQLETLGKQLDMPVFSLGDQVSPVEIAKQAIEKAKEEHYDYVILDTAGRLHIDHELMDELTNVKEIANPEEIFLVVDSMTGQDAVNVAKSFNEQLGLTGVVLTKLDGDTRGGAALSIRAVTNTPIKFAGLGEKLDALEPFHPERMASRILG
# Protocol: Ligand binding assays with purified NG domains of (Ec)Ffh, (Ec)FtsY and (Bs)Ffh proteins were carried out by microscale thermophoresis (MST)[80]. All experiments were performed on a Monolith NT.115 (NanoTemper Technologies GmbH, Munich, Germany; software: NanoTemper Control Version 2.0.2.29) at 21 °C (red LED power was set to 50–100% and infrared laser power to 75%). After labeling of primary amines within (Ec)Ffh, (Ec)FtsY, and (Bs)Ffh (50 µM each) with the dye NT 647 (according to the manufacturers protocol), the proteins were re-buffered in SEC buffer containing 20 mM HEPES-Na, 20 mM KCl, 20 mM MgCl2, 200 mM NaCl (final pH 7.5), 10 mg ml^−1 BSA and 0.007% Tween. Two-hundred nanomolar of (Ec)Ffh, (Ec)FtsY, and (Bs)Ffh were titrated with GDP, GTP, ppGpp, and pppGpp starting from a concentration ranging between 0.75 and 3 mM, respectively. At least six independent MST experiments per ligand and protein were recorded at 680 nm and analyzed using NanoTemper Analysis version 1.5.37 and 1.2.009, and Origin8G software suits.
# [1] = tested on: SRP-dependent membrane insertion of YohP into INV; test: Post-translational YohP insertion into inverted inner membrane vesicles (INV), proteinase K resistance; type: biochemical, E. coli; details: at 0.6 mM (p)ppGpp, 10 µM GTP
# Protocol: as §1
# GTPase RbgA = biological target: GTPase RbgA; design: method as in PMID 30366986; details: read-out: inhibitor constant Ki; cited from earlier work
# T1 sequence (P0AGD7 whole entry): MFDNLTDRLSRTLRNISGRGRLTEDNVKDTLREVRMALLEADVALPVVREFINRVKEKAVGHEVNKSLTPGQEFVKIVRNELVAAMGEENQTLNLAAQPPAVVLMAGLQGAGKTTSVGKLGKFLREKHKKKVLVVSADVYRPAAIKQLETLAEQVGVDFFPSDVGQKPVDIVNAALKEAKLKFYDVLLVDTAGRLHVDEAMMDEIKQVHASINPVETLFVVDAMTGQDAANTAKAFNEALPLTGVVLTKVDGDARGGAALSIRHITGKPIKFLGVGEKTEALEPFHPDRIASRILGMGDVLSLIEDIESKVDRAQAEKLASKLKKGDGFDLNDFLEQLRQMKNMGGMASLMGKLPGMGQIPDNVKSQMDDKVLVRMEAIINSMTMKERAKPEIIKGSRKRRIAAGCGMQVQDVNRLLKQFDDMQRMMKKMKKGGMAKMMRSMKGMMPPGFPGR
# T1 sequence (P10121 whole entry): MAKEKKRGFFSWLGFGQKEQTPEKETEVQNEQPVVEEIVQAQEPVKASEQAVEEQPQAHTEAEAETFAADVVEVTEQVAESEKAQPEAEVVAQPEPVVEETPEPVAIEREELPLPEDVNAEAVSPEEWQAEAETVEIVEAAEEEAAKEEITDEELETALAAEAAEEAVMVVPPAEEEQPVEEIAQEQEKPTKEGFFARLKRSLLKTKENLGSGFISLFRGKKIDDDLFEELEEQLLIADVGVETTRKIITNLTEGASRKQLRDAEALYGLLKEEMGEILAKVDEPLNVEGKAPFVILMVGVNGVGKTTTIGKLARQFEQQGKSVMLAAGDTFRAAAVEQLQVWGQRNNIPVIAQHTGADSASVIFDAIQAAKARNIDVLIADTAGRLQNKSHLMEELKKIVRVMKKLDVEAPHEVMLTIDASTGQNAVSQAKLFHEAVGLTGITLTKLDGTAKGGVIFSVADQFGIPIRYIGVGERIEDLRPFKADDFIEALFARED
Compound,YohP insertion into SecYEG proteoliposomes (SRP/FtsY),Kd ((Bs)Ffh-NG) [µM],YohP insertion into INV [1],Ki (GTPase RbgA) [µM]
Nc1nc2c(ncn2[C@@H]2O[C@H](COP(=O)(O)OP(=O)(O)O)[C@@H](OP(=O)(O)OP(=O)(O)O)[C@H]2O)c(=O)[nH]1 [ppGpp],reduced YohP insertion into SecYEG proteoliposomes drastically,32.2 ± 7.5,complete block of insertion,300
Nc1nc2c(ncn2[C@@H]2O[C@H](COP(=O)(O)OP(=O)(O)OP(=O)(O)O)[C@@H](OP(=O)(O)OP(=O)(O)O)[C@H]2O)c(=O)[nH]1 [pppGpp],reduced YohP insertion into SecYEG proteoliposomes drastically,27.2 ± 9.8,complete block of insertion,500

# Source: article PMC8881573, “Inhibition of SRP-dependent protein secretion by the bacterial alarmone (p)ppGpp” (Nature Communications, 2022)
